Values joined by “and” are separate entries in the source; they are usually repeats but may differ in a detail not shown here. Equal values may be shown once. Read-outs that look alike come from different tables or passages of the source.
What was measured:
[1] = cited from earlier work
[2] = Caco-2 intestinal permeability; assay type: in vitro ADME, human; conditions: human; for recovery at 60 min: Caco-2, pH 7.4, with Elacridar 2 µM; for Papp A→B at 60 min, 10 μM / Papp B→A at 60 min, 10 μM: Caco-2, pH 7.4
Procedure: (§1) Caco-2 cells (cod. HTB-37) were bought from ATCC (American Type Culture Collection, Rockville, MD, USA). Caco-2 cells were cultured for 21 days on a 24 trans-well plate to reach the right confluence and differentiate until the formation of the intestinal epithelium mimetic monolayer. The test substance permeability was measured in both directions (apical to basolateral [A→B] and basolateral to apical [B→A]) across the cell monolayer. The assay was carried out in HBSS transport medium at pH 7.4. Test substance at single concentration (10 μM) was tested in duplicate at one time point (60 min). Monolayer integrity of Caco-2 cells was evaluated by TEER measurements during the experiment and by Lucifer Yellow test after the incubation with the test compound. The concentrations of the test substance and/or reference controls were measured by LC-MS/MS.
(§2) When the inhibitor leads the efflux ratio to a significant reduction (>50%) or to unity, the test compound is classified as a probable substrate of that efflux transporter. As control, the modulation of the efflux ratio of a reference known substrate (Digoxin) was evaluated with or without the respectively inhibitors in every experiment. […] In parallel, mass balance (%) of recovered test substance was also determined. […] Outside these ranges the permeability data is not reliable.

[3] = tested on: Caco-2 cells; assay: Caco-2 intestinal permeability; assay type: in vitro ADME, human; conditions: reduction of efflux ratio by Elacridar 2 µM
Procedure: as §1, §2

[4] = tested on: Caco-2 cells; conditions: expected value in brackets, cited from earlier work
[5] = Kinetic solubility in PBS; assay type: physicochemical; conditions: Phosphate Buffered Saline (PBS), aqueous buffer, kinetic from dmso stock, PBS pH 7.4, 1% DMSO
Procedure: (§3) The assay combines solubility and a non-cell-based Blood Brain Barrier permeability assay (Parallel Artificial Membrane Permeation Assay; PAMPA-BBB) into a single workflow in which a portion of the filtrate from the Solubility filter plate is added to the donor compartment of the MultiScreen filter plate for the PAMPA-BBB analysis. […] Solutions were filtered into a 96-well collection plate using vacuum filtration and then analysed by UV/Vis spectroscopy. The relative solubility was then calculated using the sum of the recorded values as compared to a standard calibration curve. […] PAMPA-BBB determination was carried out in a 96-well MultiScreen Permeability plate and the ability of a compound to diffuse from a Donor to an Acceptor compartment separated by a Porcine Brain Lipid Extract (PBLE) dissolved in dodecane (20 mg/mL) layer on a PVDF membrane support was measured. The assay was performed in duplicate in PBS at pH 7.4 and the analysis is carried out by UV/Vis spectroscopy.

[6] = molecular target: TTR (Homo sapiens, UniProt P02766); assay: Isothermal titration calorimetry (ITC), one-binding-site model; set-up: made in house; host or cells: E. coli BL21; conditions: single-binding-site model, 25 °C
Procedure: At an absorbance value of 600 nm around 0.3, the temperature was shifted to 30 °C.
Data were fitted using the “one-binding-site model” of the Malvern version of ORIGIN v.7. The heat of binding (ΔH), the stoichiometry (n), entropy (ΔS) and the dissociation constant (Kd) were then calculated from plots of the heat evolved per mole of ligand injected versus the molar ratio of ligand to protein using the software provided by the vendor (Table 3). Sample preparation is detailed below. […] A 10 µM protein stock in 2× buffer was then prepared and diluted 1:1 with a 10% DMSO solution, to obtain a 5 µM TTR solution in 1× buffer A and 5% DMSO. Different protein concentrations (3–5 µM) assayed in the replicates were prepared accordingly, starting from a 2× protein solution in 2× buffer A. Each ligand was dissolved in 100% DMSO and a 2 mM stock solution in 100% DMSO was prepared. A 200 µM compound solution was obtained in 10% DMSO and diluted 1:1 with 2× buffer A, to obtain a 100 µM ligand solution to be used for the ITC assays (in 1× buffer A and 5% DMSO).

[7] = Chromatographic Hydrophobicity Index (CHI); assay type: physicochemical
Text: The assay is a chromatographic fast gradient reversed-phase method which allows to characterize the lipophilicity of compounds in high throughput screening regime at three different pH values (2.0; 7.4; 10.5). The so defined CHI is obtained from the gradient (buffer/Acetonitrile) retention time after calibrating the chromatographic system with a test mixture of ten known standard compounds. For most compounds, CHI is between 0 and 100 and it approximates the percentage (by volume) of acetonitrile required to achieve an equal distribution of compound between the mobile and the lipophilic stationary phase of a C18 chromatographic column. Compounds that are not retained on the column are assigned to a CHI value < 0, which means very low lipophilicity. For highly lipophilic compounds, which are strongly retained by the column, a CHI value of >100 is assigned. For any value in between, the actual CHI value is calculated based on the calibration line of the reference compounds [49].

[8] = tested on: SH-SY5Y neuroblastoma human cell line; assay: Cytotoxicity in SH-SY5Y cells (ATP viability assay); assay type: cell-based; conditions: 48 h
Procedure: The neuroblastoma cell line SHSY-5Y (ATCC CRL2266) was cultured in EMEM ATCC medium supplemented with 10% FBS (Euroclone CAT No. ECS0180D), 100 units/mL penicillin, and 100 ug/mL streptomycin sulphate (Euroclone CAT No. ECB3001). Cells were grown at 37 °C in an atmosphere of 5% CO2 and plated at 10,000 cells/well in a 96-well plate (Corning Cat. N. 3610). The compounds were dissolved at a concentration of 10 mM in DMSO. Cells were stimulated for 48 h at 37 °C with serial dilutions of the compounds at the following concentrations: 0.1, 1, 10, 50, 100, and 200 μM and dispensed with an HP Dispenser (Tecan), as triplicates for each concentration. DMSO normalisation at 1.5% was performed in each well.
(§4) Cell viability was evaluated by measuring ATP levels using CellTiter Glo (Promega Cat.n. G7570) according to manufacturer’s instructions.

[9] = tested on: HepG2 human liver cancer cell line; assay: Cytotoxicity in HepG2 cells (ATP viability assay); assay type: cell-based; conditions: 48 h
Procedure: Compounds were dissolved at the concentration of 50 mM in DMSO.
DMSO normalisation at 1.0% was performed in each well.
as §4

[10] = Blood-brain barrier permeability (PAMPA-BBB); assay type: in vitro ADME
Procedure: as §3
The compounds are classified into 2 types: CNS+ compounds that can cross the BBB and CNS- compounds that cannot according to the Pe values (BBB−, Pe < 2 × 10^−6 cm/s; BBB +/−, 2 × 10^−6 cm/s < Pe < 4 × 10^−6 cm/s; BBB+, Pe > 4 × 10^−6 cm/s).
Membrane retention is also evaluated according to Equation (1), (1) 1−Rm=CAccVAcc+CDonorVDonor/Sol×VDonor where Rm is the membrane retention factor. 1 − Rm between 1.2 and 0.8 is considered fully acceptable for the reliability of the results.

[11] = molecular target: TTR; conditions: sequential model, cited from earlier work

SMILES	recovery at 60 min, 10 µM ([2]; Caco-2, pH 7.4, A→B) [%]	recovery at 60 min, 10 µM ([2]; Caco-2, pH 7.4, B→A) [%]	Papp A→B at 60 min, 10 μM [2] [×10⁻⁶ cm/s]	Papp B→A at 60 min, 10 μM [2] [×10⁻⁶ cm/s]	Papp [Expected Values] ([4]; A→B)	solubility [5] [µM]	n (stoichiometry of binding, ligand:TTR tetramer) [6]	∆H [6]	also measured
Cn1c(=O)c2c(ncn2C)n(C)c1=O [Caffeine, caffeine]									CNS Class [Expected Values] ([1]; expected class in brackets): CNS− [CNS−] (BBB−, Pe < 2 × 10^−6 cm/s); BBB-Pe [Expected Values] ([1]; expected value in brackets): 1.3 10^−6 cm/s
C[C@H]1O[C@@H](O[C@H]2[C@@H](O)C[C@H](O[C@H]3[C@@H](O)C[C@H](O[C@H]4CC[C@@]5(C)[C@H](CC[C@@H]6[C@@H]5C[C@@H](O)[C@]5(C)[C@@H](C7=CC(=O)OC7)CC[C@]65O)C4)O[C@@H]3C)O[C@@H]2C)C[C@H](O)[C@@H]1O [Digoxin, reference compound]	67 ± 5	71 ± 6	0.2 ± 0.1	14.1 ± 2.6	2 nm/s				recovery at 60 min ([2]; A→B + Elacridar 2 µM): 72 ± 1%; recovery at 60 min ([2]; B→A + Elacridar 2 µM): 75 ± 3%; efflux ratio at 60 min, 10 μM ([2]; Caco-2, pH 7.4, without inhibitor, read-out: Efflux Ratio (Papp BA/Papp AB)): > 10; Efflux Ratio (Reduction %) [3]: 96%; Papp [Expected Values] ([4]; B→A): 139 nm/s
COCCc1ccc(OCC(O)CNC(C)C)cc1 (stereo not shown) [Metoprolol, reference compound]	105 ± 5		> 40		>400 [>400] nm/s				
Cn1c(=O)c2[nH]cnc2n(C)c1=O [Theophylline, theophylline, reference compound]						> 500			
O=C(O)c1ccc2nc(-c3cc(Cl)cc(Cl)c3)oc2c1 [tafamidis, reference compound]							2.4 ± 0.1	-3.2 kcal/mol and -3.2 ± 0.3 kcal/mol	
Cc1ccc(C(=O)c2cc(O)c(O)c([N+](=O)[O-])c2)cc1 [tolcapone]	53 ± 1	70 ± 4	10.1 ± 1.2	20.6 ± 5.8		> 500	2.0 ± 0.1	-11.8 kcal/mol and -11.8 ± 0.5 kcal/mol	CHI (pH 2.0) ([7]; pH 2.0): 78.2; CHI (pH 10.5) ([7]; pH 10.5): 49.3; EC50 [8]: 29.8 ± 1.1 µM; EC50 [9]: 17.5 ± 2.4 µM; 1-Rm (membrane retention) [10]: 0.9; Papp ([10]; PBS pH 7.4, read-out: BBB-Pe): 5.6 ×10⁻⁶ cm/s; CNS Class ([10]; classified by Pe): CNS+ (BBB+, Pe > 4 × 10^−6 cm/s); Kd ([11]; read-out: Kd′ (first binding site)): 0.021 µM; Kd ([11]; read-out: Kd″ (second binding site)): 0.058 µM
